The values that follow come from ChEMBL document CHEMBL5150066, “Synthesis of estrone selenocyanate Compounds, anti-tumor activity evaluation and Structure-activity relationship analysis” (Bioorg Med Chem, 2022).

In data set [1] the test system is HeLa. In words: Antiproliferative activity against human HeLa cells assessed as inhibition of cell growth incubated for 72 hrs by MTT assay. The format is functional, cell-based.
Data set [2] has as its system SK-OV-3. In words: Antiproliferative activity against human SK-OV-3 cells assessed as inhibition of cell growth incubated for 72 hrs by MTT assay. Format: functional, cell-based. To be noted: SK-OV-3, 72 h.
A further data set relates to T47D. In words: Antiproliferative activity against human T47D cells assessed as inhibition of cell growth incubated for 72 hrs by MTT assay. Format: functional, cell-based.
Another data set concerns MCF7. In words: Antiproliferative activity against human MCF7 cells assessed as inhibition of cell growth incubated for 72 hrs by MTT assay. The format is functional, cell-based. To be noted: MCF7, 72 h.
For a further data set, the system named is HepG2. In words: Antiproliferative activity against human HepG2 cells assessed as inhibition of cell growth incubated for 72 hrs by MTT assay. The format is functional, cell-based. To be noted: HepG2, 72 h.
A short description of data set [3]: Cytotoxicity against HEK293T cells assessed as inhibition of cell growth incubated for 72 hrs by MTT assay. The format is toxicity, cell-based, HEK-293T. To be noted: human.
A short description of data set [4]: Selectivity index, ratio of IC50 for cytotoxicity against HEK293T cells to IC50 for antiproliferative activity against human HeLa cells. The format is toxicity, cell-based. To be noted: HEK293T cells versus HeLa cells, read-out: Ratio IC50.
Data set [5] concerns HeLa. The experiment in a line: Antitumor activity against human HeLa cells xenografted in wildtype zebrafish AB yolk sac assessed as tumor fluorescence intensity at 15 uM measured immediately by fluorescence based assay. Format: functional.
The test system of data set [6] is HeLa. The experiment in a line: Antitumor activity against human HeLa cells xenografted in wildtype zebrafish AB yolk sac assessed as tumor fluorescence intensity at 15 uM measured 48 hrs post injection by fluorescence based assay. Format: functional.
The test system of data set [7] is HeLa. In words: Antitumor activity against human HeLa cells xenografted in wildtype zebrafish AB yolk sac assessed as tumor fluorescence area at 15 uM measured immediately by fluorescence based assay. Format: functional.
The test system of data set [8] is HeLa. In words: Antitumor activity against human HeLa cells xenografted in wildtype zebrafish AB yolk sac assessed as tumor fluorescence area at 15 uM measured 48 hrs post injection by fluorescence based assay. The format is functional.
In data set [9] the test system is SK-OV-3. In words: Induction of apoptosis in human SK-OV-3 cells assessed as viable cells at 5 umol/L incubated for 24 hrs by Annexin V-FITC/PI staining based flow cytometric analysis (reference value: 89.83 %). Format: functional. To be noted: SK-OV-3, 24 h, dose 5 µmol/L, read-out: Activity.
Data set [10] deals with SK-OV-3. In words: Induction of apoptosis in human SK-OV-3 cells assessed as early apoptotic cells at 5 umol/L incubated for 24 hrs by Annexin V-FITC/PI staining based flow cytometric analysis (reference value: 4.66 %). Format: functional. To be noted: dose 5 µmol/L, at 5 µM.
For data set [11], the system named is SK-OV-3. In words: Induction of apoptosis in human SK-OV-3 cells assessed as late apoptotic cells at 5 umol/L incubated for 24 hrs by Annexin V-FITC/PI staining based flow cytometric analysis (reference value: 5.51 %). Format: functional. To be noted: dose 5 µmol/L, at 5 µM.
The test system of data set [12] is SK-OV-3. The experiment in a line: Induction of apoptosis in human SK-OV-3 cells assessed as necrotic cells at 5 umol/L incubated for 24 hrs by Annexin V-FITC/PI staining based flow cytometric analysis (reference value: 0.00 %). The format is functional. To be noted: dose 5 µmol/L, at 5 µM.
Data set [13] relates to SK-OV-3. The experiment in a line: Induction of apoptosis in human SK-OV-3 cells assessed as viable cells at 10 umol/L incubated for 24 hrs by Annexin V-FITC/PI staining based flow cytometric analysis (reference value: 89.83 %). To be noted: SK-OV-3, 24 h, dose 10 µmol/L, read-out: Activity. Format: functional.
Data set [14] relates to SK-OV-3. In words: Induction of apoptosis in human SK-OV-3 cells assessed as early apoptotic cells at 10 umol/L incubated for 24 hrs by Annexin V-FITC/PI staining based flow cytometric analysis (reference value: 4.66 %). The format is functional. To be noted: dose 10 µmol/L, at 10 µM.
The test system of data set [15] is SK-OV-3. In words: Induction of apoptosis in human SK-OV-3 cells assessed as late apoptotic cells at 10 umol/L incubated for 24 hrs by Annexin V-FITC/PI staining based flow cytometric analysis (reference value: 5.51 %). To be noted: dose 10 µmol/L, at 10 µM. Format: functional.
Data set [16] concerns SK-OV-3. The experiment in a line: Induction of apoptosis in human SK-OV-3 cells assessed as necrotic cells at 10 umol/L incubated for 24 hrs by Annexin V-FITC/PI staining based flow cytometric analysis (reference value: 0.00 %). The format is functional. To be noted: dose 10 µmol/L, at 10 µM.
The test system of data set [17] is SK-OV-3. The experiment in a line: Induction of apoptosis in human SK-OV-3 cells assessed as viable cells at 15 umol/L incubated for 24 hrs by Annexin V-FITC/PI staining based flow cytometric analysis (reference value: 89.83 %). Format: functional. To be noted: SK-OV-3, 24 h, dose 15 µmol/L, read-out: Activity.
Data set [18] concerns SK-OV-3. In words: Induction of apoptosis in human SK-OV-3 cells assessed as early apoptotic cells at 15 umol/L incubated for 24 hrs by Annexin V-FITC/PI staining based flow cytometric analysis (reference value: 4.66 %). Format: functional. To be noted: dose 15 µmol/L, at 15 µM.
Data set [19] relates to SK-OV-3. The experiment in a line: Induction of apoptosis in human SK-OV-3 cells assessed as late apoptotic cells at 15 umol/L incubated for 24 hrs by Annexin V-FITC/PI staining based flow cytometric analysis (reference value: 5.51 %). Format: functional. To be noted: dose 15 µmol/L, at 15 µM.
The test system of data set [20] is SK-OV-3. In words: Induction of apoptosis in human SK-OV-3 cells assessed as necrotic cells at 15 umol/L incubated for 24 hrs by Annexin V-FITC/PI staining based flow cytometric analysis (reference value: 0.00 %). Format: functional. To be noted: dose 15 µmol/L, at 15 µM.
Data set [21] has as its system SK-OV-3. The experiment in a line: Induction of apoptosis in human SK-OV-3 cells assessed as viable cells at 20 umol/L incubated for 24 hrs by Annexin V-FITC/PI staining based flow cytometric analysis (reference value: 89.83 %). To be noted: SK-OV-3, 24 h, dose 20 µmol/L, read-out: Activity. The format is functional.
Data set [22] concerns SK-OV-3. In words: Induction of apoptosis in human SK-OV-3 cells assessed as early apoptotic cells at 20 umol/L incubated for 24 hrs by Annexin V-FITC/PI staining based flow cytometric analysis (reference value: 4.66 %). The format is functional. To be noted: dose 20 µmol/L, at 20 µM.
The test system of data set [23] is SK-OV-3. In words: Induction of apoptosis in human SK-OV-3 cells assessed as late apoptotic cells at 20 umol/L incubated for 24 hrs by Annexin V-FITC/PI staining based flow cytometric analysis (reference value: 5.51 %). The format is functional. To be noted: dose 20 µmol/L, at 20 µM.
In data set [24] the test system is SK-OV-3. In words: Induction of apoptosis in human SK-OV-3 cells assessed as necrotic cells at 20 umol/L incubated for 24 hrs by Annexin V-FITC/PI staining based flow cytometric analysis (reference value: 0.00 %). Format: functional. To be noted: dose 20 µmol/L, at 20 µM.
Data set [25] relates to SK-OV-3. The experiment in a line: Induction of apoptosis in human SK-OV-3 cells assessed as viable cells at 25 umol/L incubated for 24 hrs by Annexin V-FITC/PI staining based flow cytometric analysis (reference value: 89.83 %). The format is functional. To be noted: SK-OV-3, 24 h, dose 25 µmol/L, read-out: Activity.
In data set [26] the test system is SK-OV-3. In words: Induction of apoptosis in human SK-OV-3 cells assessed as early apoptotic cells at 25 umol/L incubated for 24 hrs by Annexin V-FITC/PI staining based flow cytometric analysis (reference value: 4.66 %). The format is functional. To be noted: dose 25 µmol/L, at 25 µM.
Data set [27] has as its system SK-OV-3. In words: Induction of apoptosis in human SK-OV-3 cells assessed as late apoptotic cells at 25 umol/L incubated for 24 hrs by Annexin V-FITC/PI staining based flow cytometric analysis (reference value: 5.51 %). Format: functional. To be noted: dose 25 µmol/L, at 25 µM.
In data set [28] the test system is SK-OV-3. In words: Induction of apoptosis in human SK-OV-3 cells assessed as necrotic cells at 25 umol/L incubated for 24 hrs by Annexin V-FITC/PI staining based flow cytometric analysis (reference value: 0.00 %). The format is functional. To be noted: dose 25 µmol/L, at 25 µM.

pIC50: −log10 of the molar value.

Turning to `C[C@]12CC[C@@H]3c4ccc(OCCCCC[Se]C#N)cc4CC[C@H]3[C@@H]1CCC2=O`, the pIC50 in the data set with HeLa [1] was 5.02; in the data set with SK-OV-3 [2] it was 4.51; in the data set on T47D it was 4.17; with MCF7, 4.42; in the data set with HepG2, below 4.00. In addition, in [3], the IC50 at 72 h came to 77.2 µM. Also, in data set [4], the selectivity ratio was determined as 8.1. Besides, the Flu intensity in the data set with HeLa [5] was 43169.53; in the data set with HeLa [6] it was 5328.6. In addition, the values for the Activity in the data set with HeLa [7] and with HeLa [8] were 79354.17 pixel and 12391.83 pixel, respectively.

In the case of `C[C@]12CC[C@@H]3c4cc(NC(=O)CCCCCC[Se]C#N)c(O)cc4CC[C@H]3[C@@H]1CCC2=O`, the pIC50 was 4.99 with HeLa [1]; 5.09 with SK-OV-3 [2]; 4.60 in the data set with T47D; 5.00 in the data set with MCF7; 5.00 in the data set on HepG2. Moreover, the IC50 at 72 h in data set [3] is 14.4 µM. Further, the viability at 5 µM with SK-OV-3 [9] was found to be 43.9%. Moreover, the Activity was found to be 27.75% with SK-OV-3 [10]; 28.34% in the data set with SK-OV-3 [11]; 0.04% with SK-OV-3 [12]; 32.38% with SK-OV-3 [14]; 36.97% in the data set with SK-OV-3 [15]; 0.45% in the data set on SK-OV-3 [16]. Besides, the Activity in the data set on SK-OV-3 [18] amounted to 31.88%; in the data set on SK-OV-3 [19], 51.6%; in the data set on SK-OV-3 [20], 0.2%; with SK-OV-3 [22], 29.04%; in the data set on SK-OV-3 [23], 58.26%; in the data set on SK-OV-3 [24], 0.17%. Besides, the Activity in the data set with SK-OV-3 [26] is reported as 42.27%; with SK-OV-3 [27], 50.48%; in the data set on SK-OV-3 [28], 0.33%. Besides, in the data set on SK-OV-3 [13], the viability at 10 µM was 30.2%. For the same molecule, in the data set with SK-OV-3 [17], the viability at 15 µM turned out to be 16.3%. Besides, in the data set on SK-OV-3 [21], the viability at 20 µM came to 12.5%. In the data set on SK-OV-3 [25], the viability at 25 µM stood at 6.93%.
